According to patent US9340590B2 (priority 2011, dated 2016):
Positions of bridges follow the written chain, without caps; N, C: chain ends. Non-standard residues stand in square brackets, D forms with d. Residues, ends and D or L forms follow the SMILES beside them. Orn = NCCC[C@H](N)C(=O)O; Pra = C#CC[C@H](N)C(=O)O

Tests used:
[1] = molecular target: hNav1.5 (Homo sapiens, UniProt Q14524); assay: cell-based
[2] = molecular target: hNav1.7 (Homo sapiens, UniProt Q15858); assay: cell-based; settings: Nav1.7 Use IC50
hNav1.7, sequence (Q15858 whole entry, looked up): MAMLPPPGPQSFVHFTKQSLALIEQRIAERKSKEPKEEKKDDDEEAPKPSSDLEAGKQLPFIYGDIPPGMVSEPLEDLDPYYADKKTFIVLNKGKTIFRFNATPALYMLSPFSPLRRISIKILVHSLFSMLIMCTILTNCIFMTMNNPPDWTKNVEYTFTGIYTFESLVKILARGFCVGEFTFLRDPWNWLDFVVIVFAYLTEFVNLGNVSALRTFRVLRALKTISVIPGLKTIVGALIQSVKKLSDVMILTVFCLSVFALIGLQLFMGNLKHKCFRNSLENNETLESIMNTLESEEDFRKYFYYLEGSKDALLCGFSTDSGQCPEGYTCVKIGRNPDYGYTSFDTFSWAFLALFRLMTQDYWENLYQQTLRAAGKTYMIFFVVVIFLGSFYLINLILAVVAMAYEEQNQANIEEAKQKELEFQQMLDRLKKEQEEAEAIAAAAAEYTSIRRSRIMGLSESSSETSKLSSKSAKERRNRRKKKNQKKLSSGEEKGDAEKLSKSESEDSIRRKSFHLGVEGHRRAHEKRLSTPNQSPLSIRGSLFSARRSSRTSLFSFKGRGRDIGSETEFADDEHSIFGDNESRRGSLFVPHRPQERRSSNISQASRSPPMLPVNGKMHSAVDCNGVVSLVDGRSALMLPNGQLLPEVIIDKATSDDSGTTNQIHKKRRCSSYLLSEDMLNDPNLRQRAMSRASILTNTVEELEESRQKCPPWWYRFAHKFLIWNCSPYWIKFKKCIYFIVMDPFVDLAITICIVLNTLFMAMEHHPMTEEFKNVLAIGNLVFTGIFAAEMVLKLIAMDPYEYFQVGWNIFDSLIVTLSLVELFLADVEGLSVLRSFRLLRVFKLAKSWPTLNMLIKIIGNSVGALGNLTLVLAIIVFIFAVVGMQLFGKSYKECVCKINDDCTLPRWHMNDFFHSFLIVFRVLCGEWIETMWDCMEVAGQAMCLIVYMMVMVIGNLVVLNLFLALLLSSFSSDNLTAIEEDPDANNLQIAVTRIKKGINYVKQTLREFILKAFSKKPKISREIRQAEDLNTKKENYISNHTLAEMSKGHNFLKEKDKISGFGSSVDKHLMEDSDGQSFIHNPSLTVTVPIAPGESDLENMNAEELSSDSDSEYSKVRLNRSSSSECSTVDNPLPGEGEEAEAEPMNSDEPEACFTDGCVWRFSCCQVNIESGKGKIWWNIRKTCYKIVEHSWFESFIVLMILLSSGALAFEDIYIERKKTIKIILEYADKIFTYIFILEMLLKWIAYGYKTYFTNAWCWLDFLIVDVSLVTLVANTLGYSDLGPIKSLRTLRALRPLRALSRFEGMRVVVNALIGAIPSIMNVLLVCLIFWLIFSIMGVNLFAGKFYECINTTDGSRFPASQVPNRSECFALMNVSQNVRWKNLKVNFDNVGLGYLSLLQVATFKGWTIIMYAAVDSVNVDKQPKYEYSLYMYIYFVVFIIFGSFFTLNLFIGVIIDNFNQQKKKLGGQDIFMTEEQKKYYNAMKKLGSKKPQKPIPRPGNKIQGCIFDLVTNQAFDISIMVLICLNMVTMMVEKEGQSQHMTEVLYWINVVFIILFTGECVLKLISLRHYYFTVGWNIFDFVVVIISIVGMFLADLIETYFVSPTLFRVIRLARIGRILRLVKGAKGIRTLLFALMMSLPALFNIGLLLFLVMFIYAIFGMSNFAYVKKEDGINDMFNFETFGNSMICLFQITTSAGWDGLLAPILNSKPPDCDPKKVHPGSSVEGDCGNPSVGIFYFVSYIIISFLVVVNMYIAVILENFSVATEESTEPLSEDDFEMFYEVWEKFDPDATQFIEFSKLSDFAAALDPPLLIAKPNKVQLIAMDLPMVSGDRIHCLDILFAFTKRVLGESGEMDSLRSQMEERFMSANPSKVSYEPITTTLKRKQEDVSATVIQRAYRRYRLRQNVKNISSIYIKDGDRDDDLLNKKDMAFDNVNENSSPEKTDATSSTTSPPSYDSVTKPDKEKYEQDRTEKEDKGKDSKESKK

hNav1.5, sequence (Q14524 whole entry, looked up): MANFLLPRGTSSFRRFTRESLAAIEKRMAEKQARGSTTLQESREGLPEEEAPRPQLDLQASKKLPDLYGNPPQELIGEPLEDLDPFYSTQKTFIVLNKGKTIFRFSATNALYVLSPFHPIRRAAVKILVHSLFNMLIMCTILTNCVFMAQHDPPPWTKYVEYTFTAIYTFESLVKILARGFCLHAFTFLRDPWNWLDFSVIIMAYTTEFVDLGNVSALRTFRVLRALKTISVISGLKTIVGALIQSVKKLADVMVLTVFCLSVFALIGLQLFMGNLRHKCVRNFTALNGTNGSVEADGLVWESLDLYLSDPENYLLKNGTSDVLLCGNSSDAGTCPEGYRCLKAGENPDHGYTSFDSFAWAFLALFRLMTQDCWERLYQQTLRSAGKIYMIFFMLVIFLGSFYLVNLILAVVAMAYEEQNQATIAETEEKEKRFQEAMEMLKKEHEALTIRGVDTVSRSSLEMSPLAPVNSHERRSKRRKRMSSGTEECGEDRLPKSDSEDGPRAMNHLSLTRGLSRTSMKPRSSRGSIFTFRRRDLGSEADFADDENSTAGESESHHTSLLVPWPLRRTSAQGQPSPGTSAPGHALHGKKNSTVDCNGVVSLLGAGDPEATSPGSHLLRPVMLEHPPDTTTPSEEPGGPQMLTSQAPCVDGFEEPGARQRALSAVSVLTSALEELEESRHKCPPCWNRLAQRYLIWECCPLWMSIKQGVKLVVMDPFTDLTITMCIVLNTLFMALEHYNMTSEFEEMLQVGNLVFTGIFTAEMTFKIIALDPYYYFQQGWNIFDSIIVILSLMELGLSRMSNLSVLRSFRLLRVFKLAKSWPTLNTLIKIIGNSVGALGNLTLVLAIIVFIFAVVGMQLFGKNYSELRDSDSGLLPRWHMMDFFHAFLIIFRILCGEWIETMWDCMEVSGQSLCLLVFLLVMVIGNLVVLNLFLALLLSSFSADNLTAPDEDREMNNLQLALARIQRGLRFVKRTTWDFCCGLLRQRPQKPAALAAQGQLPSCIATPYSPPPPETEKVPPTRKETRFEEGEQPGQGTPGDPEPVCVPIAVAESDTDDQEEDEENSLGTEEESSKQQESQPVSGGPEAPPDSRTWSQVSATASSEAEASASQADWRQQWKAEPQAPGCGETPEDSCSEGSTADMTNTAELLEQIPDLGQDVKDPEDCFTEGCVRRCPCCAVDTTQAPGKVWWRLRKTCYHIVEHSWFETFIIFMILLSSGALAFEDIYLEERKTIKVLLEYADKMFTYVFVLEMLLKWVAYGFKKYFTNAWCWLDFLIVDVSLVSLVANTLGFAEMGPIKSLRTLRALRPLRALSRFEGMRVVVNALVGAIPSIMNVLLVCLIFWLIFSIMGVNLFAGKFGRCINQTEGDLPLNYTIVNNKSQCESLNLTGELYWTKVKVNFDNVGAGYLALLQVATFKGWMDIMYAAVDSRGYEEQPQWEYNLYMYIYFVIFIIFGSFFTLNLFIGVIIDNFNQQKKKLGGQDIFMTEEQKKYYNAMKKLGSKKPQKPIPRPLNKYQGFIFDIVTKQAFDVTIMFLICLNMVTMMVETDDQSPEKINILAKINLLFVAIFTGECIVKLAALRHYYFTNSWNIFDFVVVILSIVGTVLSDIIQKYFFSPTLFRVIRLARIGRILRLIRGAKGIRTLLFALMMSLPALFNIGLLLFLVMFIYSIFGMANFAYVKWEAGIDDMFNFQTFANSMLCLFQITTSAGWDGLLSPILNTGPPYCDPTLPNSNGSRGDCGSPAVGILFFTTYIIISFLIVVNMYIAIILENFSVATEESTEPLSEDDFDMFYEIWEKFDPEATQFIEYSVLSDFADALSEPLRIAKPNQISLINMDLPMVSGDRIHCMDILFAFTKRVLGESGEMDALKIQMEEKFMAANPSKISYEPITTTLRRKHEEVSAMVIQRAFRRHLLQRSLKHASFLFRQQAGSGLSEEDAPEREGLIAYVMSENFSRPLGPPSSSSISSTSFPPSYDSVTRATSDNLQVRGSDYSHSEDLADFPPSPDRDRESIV

Structure (SMILES)	IC50 [1]	IC50 [2]
CC[C@H](C)[C@@H]1NC(=O)[C@@H]2CSSC[C@@H]3NC(=O)[C@H](C(C)C)NC(=O)[C@H](CC(C)C)NC(=O)[C@H](CC(N)=O)NC(=O)[C@@H]4CCCN4C(=O)[C@H](CCCNC(=N)N)NC(=O)[C@H](CSSC[C@H](NC(=O)[C@@H](N)CC(=O)O)C(=O)N[C@@H](CC(C)C)C(=O)NCC(=O)N[C@@H](C)C(=O)N[C@@H](CCSC)C(=O)N[C@@H](CCCNC(=N)N)C(=O)N[C@@H](CCCCN)C(=O)N2)NC(=O)[C@H](CSSC[C@@H](C(=O)N[C@@H](CCCCN)C(=O)N[C@@H](Cc2ccc(O)cc2)C(=O)N[C@H](C(=O)N[C@@H](Cc2ccccc2)C(N)=O)C(C)C)NC(=O)[C@H](Cc2c[nH]c4ccccc24)NC(=O)[C@H](Cc2c[nH]cn2)NC(=O)[C@H](Cc2c[nH]cn2)NC(=O)[C@H]([C@@H](C)O)NC(=O)[C@H](CCCNC(=N)N)NC(=O)[C@H](CO)NC3=O)NC(=O)[C@H](CCCCN)NC(=O)[C@H](CC(=O)O)NC(=O)[C@H](CC(N)=O)NC(=O)[C@H](CC(=O)O)NC(=O)[C@@H]2CCCN2C1=O [[Ala5;His28]GpTx-1(1-34)] (H-DCLGAMRKCIPDNDKCCRPNLVCSRTHHWCKYVF-NH2; disulfide 2-17, 9-23, 16-30)	> 10000 nM	26 nM
C#CC[C@@H]1NC(=O)[C@H](CC(=O)O)NC(=O)[C@@H]2CCCN2C(=O)[C@H]([C@@H](C)CC)NC(=O)[C@@H]2CSSC[C@@H]3NC(=O)[C@H](C(C)C)NC(=O)[C@H](CC(C)C)NC(=O)[C@H](CC(N)=O)NC(=O)[C@@H]4CCCN4C(=O)[C@H](CCCNC(=N)N)NC(=O)[C@H](CSSC[C@H](NC(=O)[C@@H](N)CC(=O)O)C(=O)N[C@@H](CC(C)C)C(=O)NCC(=O)N[C@@H](C)C(=O)N[C@@H](CC(C)C)C(=O)N[C@@H](CCCNC(=N)N)C(=O)N[C@@H](CCCCN)C(=O)N2)NC(=O)[C@H](CSSC[C@@H](C(=O)N[C@@H](CCCCN)C(=O)N[C@@H](Cc2ccc(O)cc2)C(=O)N[C@H](C(=O)N[C@@H](Cc2ccccc2)C(N)=O)C(C)C)NC(=O)[C@H](Cc2c[nH]c4ccccc24)NC(=O)[C@H](CCCNC(=N)N)NC(=O)[C@H](Cc2c[nH]cn2)NC(=O)[C@H](CC(C)C)NC(=O)[C@H](CCCNC(=N)N)NC(=O)[C@H](CO)NC3=O)NC(=O)[C@H](CCCCN)NC(=O)[C@H](CC(=O)O)NC1=O [[Ala5;Leu6,26;Pra13;Arg28]GpTx-1(1-34)] (H-DCLGALRKCIPD[Pra]DKCCRPNLVCSRLHRWCKYVF-NH2; disulfide 2-17, 9-23, 16-30)	> 10000 nM	9 nM
CC(C)C[C@@H]1NC(=O)[C@H](C)NC(=O)CNC(=O)[C@H](CC(C)C)NC(=O)[C@@H](NC(=O)[C@@H](N)CC(=O)O)CSSC[C@@H]2NC(=O)[C@@H]3CSSC[C@@H](C(=O)N[C@@H](CCCCN)C(=O)N[C@@H](Cc4ccc(O)cc4)C(=O)N[C@H](C(=O)N[C@@H](Cc4ccccc4)C(N)=O)C(C)C)NC(=O)[C@H](Cc4c[nH]c5ccccc45)NC(=O)[C@H](CCCCN)NC(=O)[C@H](Cc4c[nH]cn4)NC(=O)[C@H]([C@@H](C)O)NC(=O)[C@H](CCCNC(=N)N)NC(=O)[C@H](CO)NC(=O)[C@H](CSSC[C@H](NC(=O)[C@H](CCCCN)NC(=O)[C@H](CCCNC(=N)N)NC1=O)C(=O)N[C@@H](CCC(=O)O)C(=O)N1CCC[C@H]1C(=O)N[C@@H](CC(=O)O)C(=O)N[C@@H](CC(N)=O)C(=O)N[C@@H](CC(=O)O)C(=O)N[C@@H](CCCCN)C(=O)N3)NC(=O)[C@H](C(C)C)NC(=O)[C@H](CC(C)C)NC(=O)[C@H](CC(N)=O)NC(=O)[C@@H]1CCCN1C(=O)[C@H](CCCNC(=N)N)NC2=O [[Ala5;Leu6;Glu10]GpTx-1(1-34)]	> 10000 nM	30 nM
CC[C@H](C)[C@@H]1NC(=O)[C@@H]2CSSC[C@@H]3NC(=O)[C@H](C(C)C)NC(=O)[C@H](CC(C)C)NC(=O)[C@H](CC(N)=O)NC(=O)[C@@H]4CCCN4C(=O)[C@H](CCCNC(=N)N)NC(=O)[C@H](CSSC[C@H](NC(=O)[C@@H](N)CC(=O)O)C(=O)N[C@@H](CC(C)C)C(=O)NCC(=O)N[C@@H](C)C(=O)N[C@@H](CC(C)C)C(=O)N[C@@H](CCCNC(=N)N)C(=O)N[C@@H](CCCCN)C(=O)N2)NC(=O)[C@H](CSSC[C@@H](C(=O)N[C@@H](CCCCN)C(=O)N[C@@H](Cc2ccc(O)cc2)C(=O)N[C@H](C(=O)N[C@@H](Cc2ccccc2)C(N)=O)C(C)C)NC(=O)[C@H](Cc2c[nH]c4ccccc24)NC(=O)[C@H](CCCCN)NC(=O)[C@H](Cc2c[nH]cn2)NC(=O)[C@H]([C@@H](C)O)NC(=O)[C@H](CCCNC(=N)N)NC(=O)[C@H](CO)NC3=O)NC(=O)[C@H](CCCCN)NC(=O)[C@H](CC(=O)O)NC(=O)[C@H](CC(N)=O)NC(=O)[C@H](CCC(=O)O)NC(=O)[C@@H]2CCCN2C1=O [[Ala5;Leu6;Glu12]GpTx-1(1-34)]	> 10000 nM	21 nM
CC[C@H](C)[C@@H]1NC(=O)[C@@H]2CSSC[C@@H]3NC(=O)[C@H](C(C)C)NC(=O)[C@H](CC(C)C)NC(=O)[C@H](CC(N)=O)NC(=O)[C@@H]4CCCN4C(=O)[C@H](CCCNC(=N)N)NC(=O)[C@H](CSSC[C@H](NC(=O)[C@@H](N)CC(=O)O)C(=O)N[C@@H](CC(C)C)C(=O)NCC(=O)N[C@@H](C)C(=O)N[C@@H](CCSC)C(=O)N[C@@H](CCCNC(=N)N)C(=O)N[C@@H](CCCCN)C(=O)N2)NC(=O)[C@H](CSSC[C@@H](C(=O)N[C@@H](CCCCN)C(=O)N[C@@H](Cc2ccc(O)cc2)C(=O)N[C@H](C(=O)N[C@@H](Cc2ccccc2)C(N)=O)C(C)C)NC(=O)[C@H](Cc2c[nH]c4ccccc24)NC(=O)[C@H](CCCN)NC(=O)[C@H](Cc2c[nH]cn2)NC(=O)[C@H]([C@@H](C)O)NC(=O)[C@H](CCCNC(=N)N)NC(=O)[C@H](CO)NC3=O)NC(=O)[C@H](CCCCN)NC(=O)[C@H](CC(=O)O)NC(=O)[C@H](CC(N)=O)NC(=O)[C@H](CC(=O)O)NC(=O)[C@@H]2CCCN2C1=O [[Ala5;Orn28]GpTx-1(1-34)] (H-DCLGAMRKCIPDNDKCCRPNLVCSRTH[Orn]WCKYVF-NH2; disulfide 2-17, 9-23, 16-30)	> 10000 nM	59 nM
CC(C)C[C@@H]1NC(=O)[C@@H](NC(=O)[C@@H](N)CC(=O)O)CSSC[C@@H]2NC(=O)[C@@H]3CSSC[C@@H](C(=O)N[C@@H](CCCCN)C(=O)N[C@@H](Cc4ccc(O)cc4)C(=O)N[C@H](C(=O)N[C@@H](Cc4ccccc4)C(N)=O)C(C)C)NC(=O)[C@H](Cc4c[nH]c5ccccc45)NC(=O)[C@H](CCCCN)NC(=O)[C@H](Cc4c[nH]cn4)NC(=O)[C@H]([C@@H](C)O)NC(=O)[C@H](CCCNC(=N)N)NC(=O)[C@H](CO)NC(=O)[C@H](CSSC[C@H](NC(=O)[C@H](CCCCN)NC(=O)[C@H](CCCNC(=N)N)NC(=O)[C@H](Cc4ccccc4)NC(=O)[C@H](C)NC(=O)CNC1=O)C(=O)N[C@@H](CC(=O)O)C(=O)N1CCC[C@H]1C(=O)N[C@@H](CC(=O)O)C(=O)N[C@@H](CC(N)=O)C(=O)N[C@@H](CC(=O)O)C(=O)N[C@@H](CCCCN)C(=O)N3)NC(=O)[C@H](C(C)C)NC(=O)[C@H](CC(C)C)NC(=O)[C@H](CC(N)=O)NC(=O)[C@@H]1CCCN1C(=O)[C@H](CCCNC(=N)N)NC2=O [[Ala5;Phe6;Asp10]GpTx-1(1-34)] (H-DCLGAFRKCDPDNDKCCRPNLVCSRTHKWCKYVF-NH2; disulfide 2-17, 9-23, 16-30)	> 10000 nM	40 nM
CC(C)C[C@@H]1NC(=O)[C@@H](NC(=O)[C@@H](N)CC(=O)O)CSSC[C@@H]2NC(=O)[C@@H]3CSSC[C@@H](C(=O)N[C@@H](CCCCN)C(=O)N[C@@H](Cc4ccc(O)cc4)C(=O)N[C@H](C(=O)N[C@@H](Cc4ccccc4)C(N)=O)C(C)C)NC(=O)[C@H](Cc4c[nH]c5ccccc45)NC(=O)[C@H](CCCCN)NC(=O)[C@H](Cc4c[nH]cn4)NC(=O)[C@H]([C@@H](C)O)NC(=O)[C@H](CCCNC(=N)N)NC(=O)[C@H](CO)NC(=O)[C@H](CSSC[C@H](NC(=O)[C@H](CCCCN)NC(=O)[C@H](CCCNC(=N)N)NC(=O)[C@H](Cc4ccccc4)NC(=O)[C@H](C)NC(=O)CNC1=O)C(=O)N[C@@H](CCC(=O)O)C(=O)N1CCC[C@H]1C(=O)N[C@@H](CC(=O)O)C(=O)N[C@@H](CC(N)=O)C(=O)N[C@@H](CC(=O)O)C(=O)N[C@@H](CCCCN)C(=O)N3)NC(=O)[C@H](C(C)C)NC(=O)[C@H](CC(C)C)NC(=O)[C@H](CC(N)=O)NC(=O)[C@@H]1CCCN1C(=O)[C@H](CCCNC(=N)N)NC2=O [[Ala5;Phe6;Glu10]GpTx-1(1-34)] (H-DCLGAFRKCEPDNDKCCRPNLVCSRTHKWCKYVF-NH2; disulfide 2-17, 9-23, 16-30)	> 10000 nM	79 nM
CC[C@H](C)[C@@H]1NC(=O)[C@@H]2CSSC[C@@H]3NC(=O)[C@H](C(C)C)NC(=O)[C@H](CC(C)C)NC(=O)[C@H](CC(N)=O)NC(=O)[C@@H]4CCCN4C(=O)[C@H](CCCNC(=N)N)NC(=O)[C@H](CSSC[C@H](NC(=O)[C@@H](N)CC(=O)O)C(=O)N[C@@H](CC(C)C)C(=O)NCC(=O)N[C@@H](C)C(=O)N[C@@H](Cc4ccccc4)C(=O)N[C@@H](CCCNC(=N)N)C(=O)N[C@@H](CCCCN)C(=O)N2)NC(=O)[C@H](CSSC[C@@H](C(=O)N[C@@H](CCCCN)C(=O)N[C@@H](Cc2ccc(O)cc2)C(=O)N[C@H](C(=O)N[C@@H](Cc2ccccc2)C(N)=O)C(C)C)NC(=O)[C@H](Cc2c[nH]c4ccccc24)NC(=O)[C@H](CCCCN)NC(=O)[C@H](Cc2c[nH]cn2)NC(=O)[C@H]([C@@H](C)O)NC(=O)[C@H](CCCNC(=N)N)NC(=O)[C@H](CO)NC3=O)NC(=O)[C@H](CCCCN)NC(=O)[C@H](CC(=O)O)NC(=O)[C@H](CC(N)=O)NC(=O)[C@H](CCC(=O)O)NC(=O)[C@@H]2CCCN2C1=O [[Ala5;Phe6;Glu12]GpTx-1(1-34)] (H-DCLGAFRKCIPENDKCCRPNLVCSRTHKWCKYVF-NH2; disulfide 2-17, 9-23, 16-30)	> 10000 nM	28 nM
